Entries after “also recorded” stand apart in the source; their conditions may differ.
Key:
[1] = target: T1, endogenously expressed SERT (Mus musculus, UniProt Q60857); assay: two-photon microscopy of acute mouse brain slices; details: for staining of acute mouse brain slices (DS, SNr, DR): 500 nM, 30 min, reduced by escitalopram or paroxetine
T1 construct: label endogenously expressed SERT; from tissue; host or cells: acute coronal brain slices of C57/BL-6 and Pet1-eYFP mice (dorsal striatum, substantia nigra reticulata, dorsal raphe)
Source text: All animal protocols were approved by the Institutional Animal Care and Use Committee (IACUC) of Columbia University, following guidelines established in the NIH Guide for the Care and Use of Laboratory Animals. All animals were caged in groups of 5 or less in a 12-hr light/dark cycle with access to food and water ad libitum.
Acute mouse brain slices preparation
Wild-type C57/BL-6 (The Jackson Laboratory, Bar Harbor, ME) and Pet1-eYFP mice were sacrificed by cervical dislocation at ages > 12 weeks. Pet1-eYFP mice (Cg-Tg(Fev-cre)1Esd/J (ePet-cre; The Jackson Laboratory) crossed with Ai32(RCLChR2(H134R)/EYFP (Ai32; The Jackson Laboratory) maintained on a 129SvEv/Tac background) were kindly provided by Dr. Mark S. Ansorge (Columbia University Irving Medical Center; Department of Psychiatry, New York, NY 10032). Mice were decapitated, and the brain was removed and placed in an ice-cold sucrose cutting solution. Coronal brain slices with 300 µm thickness were prepared using a Leica VT1200 vibratome at 0 – 4 °C. Slices containing the striatum, substantia nigra, and the raphe were transferred to oxygenated ACSF solution and allowed to equilibrate at room temperature.
Slices were incubated with PyrAte-(S)-citalopram conjugates (500 nM in ACSF) for 30 minutes at room temperature. For inhibition experiments, escitalopram (2 µM) and paroxetine (30 µM) were incubated for 15 minutes prior to addition of the test compound. Each slice was then transferred to an imaging chamber and held in place by a stainless-steel slice anchor (Warner Instruments). ACSF solutions containing the test compounds were continuously perfused throughout the imaging experiments. Structures at depths between 20 to 30 µm from the top of the slice were visualized with fluorescent signals using a Prairie Ultima multi-photon microscopy sytem: PyrAte was imaged using 810 nm excitation wavelength and 525/50 nm emission filter, eYFP was imaged using 965 nm excitation wavelength and 525/50 nm emission filter. Images were captured using Prairie View software and processed with ImageJ. Further co-localization analysis was performed using the JACoP plug-in.1 Statistical and data analysis
Data treatment and statistical analysis were performed using Microsoft Excel 2016 and GraphPad Prism v10.0. Data and statistical tests as shown in Figure 2 include individual points, mean, SEM, and P = 0.0023 as determined using two-tailed, paired t-test (t = 5.690, df = 5). Data and statistical tests as shown in Figure 5 include individual values, mean, SEM, and P values as determined using two-tailed unpaired t-test with Welch’s corrections (Fig. 5A: P = 0.0166, t = 4.665, df = 3.157; Fig. 5B: P =

SERT = target: T2, SERT (Homo sapiens, UniProt P31645); assay: radioligand binding assay, [3H]-imipramine competition in SERT-containing membrane fractions; details: 3 nM [3H]-imipramine; membranes of HEK293 YhSERT; mean ± SD of three experiments; Cheng-Prusoff; read-out: Ki, competitive binding with imipramine
T2 construct: expressed in transfected cells
Procedure: ten minutes (for [3H]MPP+), by exchange of the substrate-containing buffer with 0.2 mL ice-cold KHB.
The KHB was aspirated immediately. Cells were lysed and prepared for [3H] content analysis by adding 0.2 mL Ultima Gold™ XR liquid scintillation cocktail. […]
microplate liquid scintillation counter. Non-specific uptake was determined in the presence of 30 µM paroxetine (for YhSERT), 50 µM GBR12909 (for YhDAT and hNET), or 100 µM decynium-22 (for YhOCT3).
For radioligand binding assays, membranes were first prepared from HEK293 cells stably expressing YhSERT. Cells were harvested from dishes using a plastic scraper and ice-cold PBS. Cells were recovered as a pellet after centrifugation (400× g) for 10 min at 4°C, and then re-suspended in HME buffer. The cell suspension was frozen rapidly by immersing in liquid N2, and then immediately thawed and sonicated for three 12 pulses/min cycles. Membrane fractions were collected after centrifugation at 40000× g for 15 minutes, and then re-suspended in HME buffer. Protein concentration was determined using Coomassie Brilliant Blue kit (BioRad Laboratories, California, USA). The binding reactions were carried out in a final volume of 0.25 mL B2 buffer containing 15 µg membranes, 3 nM

T1 sequence (Q60857 whole entry): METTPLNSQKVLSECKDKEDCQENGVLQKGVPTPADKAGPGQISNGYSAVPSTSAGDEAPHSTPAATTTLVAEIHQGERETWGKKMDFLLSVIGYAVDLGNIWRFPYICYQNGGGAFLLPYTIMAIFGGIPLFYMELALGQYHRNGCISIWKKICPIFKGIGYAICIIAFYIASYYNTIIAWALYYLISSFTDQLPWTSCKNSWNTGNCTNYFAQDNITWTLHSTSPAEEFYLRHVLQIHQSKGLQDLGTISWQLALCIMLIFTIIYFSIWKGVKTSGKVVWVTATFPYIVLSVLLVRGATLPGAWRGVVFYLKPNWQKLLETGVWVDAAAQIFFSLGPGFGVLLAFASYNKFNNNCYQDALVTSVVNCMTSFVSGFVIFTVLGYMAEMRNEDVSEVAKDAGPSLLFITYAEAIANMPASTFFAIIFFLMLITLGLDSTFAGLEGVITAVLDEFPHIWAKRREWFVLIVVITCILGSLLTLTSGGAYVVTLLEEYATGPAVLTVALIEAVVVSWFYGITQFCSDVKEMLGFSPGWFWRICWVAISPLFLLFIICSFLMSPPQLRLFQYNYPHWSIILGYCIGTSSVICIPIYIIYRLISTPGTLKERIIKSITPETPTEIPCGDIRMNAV
T2 sequence (P31645 whole entry): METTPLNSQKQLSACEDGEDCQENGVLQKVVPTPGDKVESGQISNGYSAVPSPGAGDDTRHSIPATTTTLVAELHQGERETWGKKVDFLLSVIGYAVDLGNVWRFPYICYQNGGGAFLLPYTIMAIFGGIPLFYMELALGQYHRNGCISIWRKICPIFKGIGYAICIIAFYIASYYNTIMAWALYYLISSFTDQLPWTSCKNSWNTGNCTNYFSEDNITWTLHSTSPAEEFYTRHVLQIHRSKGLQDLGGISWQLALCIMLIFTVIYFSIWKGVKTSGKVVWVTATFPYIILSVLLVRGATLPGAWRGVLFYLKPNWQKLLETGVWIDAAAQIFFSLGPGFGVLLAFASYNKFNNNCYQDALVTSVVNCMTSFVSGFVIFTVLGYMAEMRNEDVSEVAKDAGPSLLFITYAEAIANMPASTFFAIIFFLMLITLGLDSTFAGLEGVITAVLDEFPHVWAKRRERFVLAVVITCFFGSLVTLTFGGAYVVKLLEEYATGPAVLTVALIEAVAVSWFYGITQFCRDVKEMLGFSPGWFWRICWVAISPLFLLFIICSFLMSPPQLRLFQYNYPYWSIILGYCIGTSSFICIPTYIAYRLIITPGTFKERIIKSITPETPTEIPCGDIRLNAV

Row | Pearson's correlation coefficient r, co-localization with eYFP-expressing serotonergic projections ([1]; DS, Pet1-eYFP mice) | Pearson's correlation coefficient r, co-localization with eYFP-expressing serotonergic projections ([1]; DS, in the presence of paroxetine) | Pearson's correlation coefficient r, co-localization with eYFP-expressing serotonergic projections ([1]; SNr, Pet1-eYFP mice) | Pearson's correlation coefficient r, co-localization with eYFP-expressing serotonergic projections ([1]; SNr, in the presence of paroxetine) | Ki (SERT) | Compound | staining of acute mouse brain slices (DS, SNr, DR) [1]
1 | 0.70 | 0.43 | 0.72 | 0.58 |  | CCN(CC)c1ccc(-c2cc[n+]3c(-c4ccccc4)c(N4CCCC4)n(CCCC(=O)NCc4ccc5c(c4)CO[C@@]5(CCCN(C)C)c4ccc(F)cc4)c3c2)cc1 [PYR-C3-CIT, PyrAte-C3-(S)-citalopram] | localization of the compound in serotonergic regions in the DS and SNr
2 |  |  |  |  | 110 ± 70 nM | CCN(CC)c1ccc(-c2cc[n+]3c(-c4ccccc4)c(N4CCCC4)n(CCCCCCC(=O)NCc4ccc5c(c4)CO[C@@]5(CCCN(C)C)c4ccc(F)cc4)c3c2)cc1 [PYR-C6-CIT, PyrAte-C6-(S)-citalopram] | effectively stains all three areas examined; also recorded: SERT-specific staining in acute mouse brain slices

From publication PMC11891579, “Fluorescent PyrAte-(S)-citalopram conjugates enable imaging of the serotonin transporter in living tissue” (Chemical Science, 2025)
